Test results: PubChem BioAssay (NCI)
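At the GI50, growth is halved. Definition used: TGI = concentration required for complete inhibition of growth.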

Columns and labels:
Experiment in all cases: growth of human tumour cells (NCI), 384-well format
SW-620 colon = tested on: SW-620 colon
MALME-3M melanoma = tested on: MALME-3M melanoma
BT-549 breast = tested on: BT-549 breast
OVCAR-4 ovarian = tested on: OVCAR-4 ovarian
SK-MEL-5 melanoma = tested on: SK-MEL-5 melanoma
UACC-257 melanoma = tested on: UACC-257 melanoma
CCRF-CEM leukemia = tested on: CCRF-CEM leukemia
786-0 renal = tested on: 786-0 renal
U251 glioblastoma = tested on: U251 glioblastoma
A498 renal = tested on: A498 renal
MDA-MB-435 melanoma = tested on: MDA-MB-435 melanoma
MOLT-4 leukemia = tested on: MOLT-4 leukemia
NCI-H23 lung = tested on: NCI-H23 lung
KM12 colon = tested on: KM12 colon
HCC-2998 colon = tested on: HCC-2998 colon
UACC-62 melanoma = tested on: UACC-62 melanoma
HOP-62 NSCLC = tested on: HOP-62 NSCLC
A549 NSCLC = tested on: A549 NSCLC
HOP-92 NSCLC = tested on: HOP-92 NSCLC
EKVX NSCLC = tested on: EKVX NSCLC
NCI/ADR-RES ovarian = tested on: NCI/ADR-RES ovarian
M14 melanoma = tested on: M14 melanoma
DU-145 prostate = tested on: DU-145 prostate
MDA-MB-468 breast = tested on: MDA-MB-468 breast
MDA-MB-231 breast = tested on: MDA-MB-231 breast
LOX IMVI melanoma = tested on: LOX IMVI melanoma
NCI-H522 lung = tested on: NCI-H522 lung
SK-MEL-2 melanoma = tested on: SK-MEL-2 melanoma
HT29 colon = tested on: HT29 colon
OVCAR-3 ovarian = tested on: OVCAR-3 ovarian
K-562 leukemia = tested on: K-562 leukemia
SNB-19 CNS = tested on: SNB-19 CNS
COLO 205 colon = tested on: COLO 205 colon
NCI-H226 lung = tested on: NCI-H226 lung
SN12C renal = tested on: SN12C renal
SNB-75 CNS = tested on: SNB-75 CNS
MCF7 breast = tested on: MCF7 breast
SF-268 CNS = tested on: SF-268 CNS
OVCAR-5 ovarian = tested on: OVCAR-5 ovarian
PC-3 prostate = tested on: PC-3 prostate
NCI-H322M lung = tested on: NCI-H322M lung
ACHN renal = tested on: ACHN renal
RPMI-8226 leukemia = tested on: RPMI-8226 leukemia
SF-539 CNS = tested on: SF-539 CNS
CAKI-1 renal = tested on: CAKI-1 renal
HCT-15 colon = tested on: HCT-15 colon
SF-295 CNS = tested on: SF-295 CNS

Structure (SMILES): CN1C(=O)[C@@H](CC2CCCC2)N(C2CCCC2)c2nc(Nc3cc(Cl)c(O)c(Cl)c3)ncc21
- GI50 (SW-620 colon): 7.08 µM
- TGI (SW-620 colon): 40.7 µM
- GI50 (MALME-3M melanoma): 4.41 µM
- TGI (MALME-3M melanoma): 29.9 µM
- GI50 (BT-549 breast): 4.02 µM
- TGI (BT-549 breast): 17.5 µM
- GI50 (OVCAR-4 ovarian): 5.33 µM
- TGI (OVCAR-4 ovarian): 37.1 µM
- GI50 (SK-MEL-5 melanoma): 4.57 µM
- TGI (SK-MEL-5 melanoma): 16.4 µM
- GI50 (UACC-257 melanoma): 6 µM
- TGI (UACC-257 melanoma): 25.4 µM
- GI50 (CCRF-CEM leukemia): 3.05 µM
- TGI (CCRF-CEM leukemia): 8.14 µM
- GI50 ([…]-0 renal): 8.07 µM
- TGI (786-0 renal): 24.3 µM
- GI50 (U251 glioblastoma): 5.66 µM
- TGI (U251 glioblastoma): 19.1 µM
- GI50 (A498 renal): 10.1 µM
- TGI (A498 renal): 27.1 µM
- GI50 (MDA-MB-435 melanoma): 7.55 µM
- TGI (MDA-MB-435 melanoma): > 100 µM
- GI50 (MOLT-4 leukemia): 1.67 µM
- TGI (MOLT-4 leukemia): 3.06 µM
- GI50 (NCI-H23 lung): 4.5 µM
- TGI (NCI-H23 lung): 35 µM
- GI50 (KM12 colon): 4.9 µM
- TGI (KM12 colon): 24.6 µM
- GI50 (HCC-2998 colon): 5.31 µM
- TGI (HCC-2998 colon): 20.5 µM
- GI50 (UACC-62 melanoma): 8.84 µM
- TGI (UACC-62 melanoma): 23.2 µM
- GI50 (HOP-62 NSCLC): 12.1 µM
- TGI (HOP-62 NSCLC): 33.1 µM
- GI50 (A549 NSCLC): 4.89 µM
- TGI (A549 NSCLC): 70.7 µM
- GI50 (HOP-92 NSCLC): 6.46 µM
- TGI (HOP-92 NSCLC): 42 µM
- GI50 (EKVX NSCLC): 3.55 µM
- TGI (EKVX NSCLC): 20 µM
- GI50 (NCI/ADR-RES ovarian): 3.46 µM
- TGI (NCI/ADR-RES ovarian): 26.7 µM
- GI50 (M14 melanoma): 6.27 µM
- TGI (M14 melanoma): 97.7 µM
- GI50 (DU-145 prostate): 6.56 µM
- TGI (DU-145 prostate): 64.7 µM
- GI50 (MDA-MB-468 breast): 2.89 µM
- TGI (MDA-MB-468 breast): 8.38 µM
- GI50 (MDA-MB-231 breast): 7.5 µM
- TGI (MDA-MB-231 breast): > 100 µM
- GI50 (LOX IMVI melanoma): 6.14 µM
- TGI (LOX IMVI melanoma): 19.5 µM
- GI50 (NCI-H522 lung): 2.6 µM
- TGI (NCI-H522 lung): 8.91 µM
- GI50 (SK-MEL-2 melanoma): 13.5 µM
- TGI (SK-MEL-2 melanoma): 28 µM
- GI50 (HT29 colon): 35.6 µM
- TGI (HT29 colon): > 100 µM
- GI50 (OVCAR-3 ovarian): 4.55 µM
- TGI (OVCAR-3 ovarian): 15.8 µM
- GI50 (K-562 leukemia): 3.57 µM
- TGI (K-562 leukemia): 15 µM
- GI50 (SNB-19 CNS): 4.67 µM
- TGI (SNB-19 CNS): > 100 µM
- GI50 (COLO 205 colon): 27.8 µM
- TGI (COLO 205 colon): 81.8 µM
- GI50 (NCI-H226 lung): 11.5 µM
- TGI (NCI-H226 lung): 31.7 µM
- GI50 (SN12C renal): 10.4 µM
- TGI (SN12C renal): > 100 µM
- GI50 (SNB-75 CNS): 6.35 µM
- TGI (SNB-75 CNS): 49 µM
- GI50 (MCF7 breast): 3.16 µM
- TGI (MCF7 breast): 23.1 µM
- GI50 (SF-268 CNS): 11.2 µM
- TGI (SF-268 CNS): 70 µM
- GI50 (OVCAR-5 ovarian): 14.8 µM
- TGI (OVCAR-5 ovarian): > 100 µM
- GI50 (PC-3 prostate): 3.42 µM
- TGI (PC-3 prostate): 20.2 µM
- GI50 (NCI-H322M lung): 15.4 µM
- TGI (NCI-H322M lung): 97.8 µM
- GI50 (ACHN renal): 6.38 µM
- TGI (ACHN renal): 26.2 µM
- GI50 (RPMI-8226 leukemia): 1.8 µM
- TGI (RPMI-8226 leukemia): 4.17 µM
- GI50 (SF-539 CNS): 8.81 µM
- TGI (SF-539 CNS): 27.2 µM
- GI50 (CAKI-1 renal): 3.95 µM
- TGI (CAKI-1 renal): 22.2 µM
- GI50 (HCT-15 colon): 4.62 µM
- TGI (HCT-15 colon): 21 µM
- GI50 (SF-295 CNS): 13 µM
- TGI (SF-295 CNS): 29.3 µM

Structure (SMILES): Cc1c(Br)c(Br)c2c3c1nc(N1CCNCC1)n3CCC2
- GI50 (SW-620 colon): 1.25 µM
- TGI (SW-620 colon): 2.51 µM
- GI50 (MALME-3M melanoma): 1.42 µM
- TGI (MALME-3M melanoma): 2.73 µM
- GI50 (BT-549 breast): 1.35 µM
- TGI (BT-549 breast): 2.64 µM
- GI50 (OVCAR-4 ovarian): 1.77 µM
- TGI (OVCAR-4 ovarian): 3.51 µM
- GI50 (SK-MEL-5 melanoma): 1.25 µM
- TGI (SK-MEL-5 melanoma): 2.51 µM
- GI50 (UACC-257 melanoma): 1.62 µM
- TGI (UACC-257 melanoma): 2.99 µM
- GI50 (CCRF-CEM leukemia): 0.885 µM
- TGI (CCRF-CEM leukemia): 2.17 µM
- GI50 ([…]-0 renal): 1.55 µM
- TGI (786-0 renal): 2.9 µM
- GI50 (U251 glioblastoma): 1.66 µM
- TGI (U251 glioblastoma): 3.04 µM
- GI50 (A498 renal): 0.792 µM
- TGI (A498 renal): 2.07 µM
- GI50 (MDA-MB-435 melanoma): 1.85 µM
- TGI (MDA-MB-435 melanoma): 3.27 µM
- GI50 (MOLT-4 leukemia): 1.23 µM
- TGI (MOLT-4 leukemia): 2.48 µM
- GI50 (NCI-H23 lung): 1.66 µM
- TGI (NCI-H23 lung): 3.09 µM
- GI50 (KM12 colon): 1.41 µM
- TGI (KM12 colon): 2.73 µM
- GI50 (HCC-2998 colon): 0.976 µM
- TGI (HCC-2998 colon): 2.23 µM
- GI50 (UACC-62 melanoma): 1.48 µM
- TGI (UACC-62 melanoma): 2.82 µM
- GI50 (HOP-62 NSCLC): 1.72 µM
- TGI (HOP-62 NSCLC): 3.57 µM
- GI50 (A549 NSCLC): 1.75 µM
- TGI (A549 NSCLC): 3.35 µM
- GI50 (HOP-92 NSCLC): 1.75 µM
- TGI (HOP-92 NSCLC): 3.3 µM
- GI50 (EKVX NSCLC): 1.57 µM
- TGI (EKVX NSCLC): 2.95 µM
- GI50 (NCI/ADR-RES ovarian): 1.68 µM
- TGI (NCI/ADR-RES ovarian): 3.27 µM
- GI50 (M14 melanoma): 1.53 µM
- TGI (M14 melanoma): 2.88 µM
- GI50 (DU-145 prostate): 1.67 µM
- TGI (DU-145 prostate): 3.12 µM
- GI50 (MDA-MB-468 breast): 1.15 µM
- TGI (MDA-MB-468 breast): 2.37 µM
- GI50 (MDA-MB-231 breast): 1.6 µM
- TGI (MDA-MB-231 breast): 3.24 µM
- GI50 (LOX IMVI melanoma): 1.49 µM
- TGI (LOX IMVI melanoma): 2.84 µM
- GI50 (NCI-H522 lung): 0.347 µM
- TGI (NCI-H522 lung): 1.8 µM
- GI50 (SK-MEL-2 melanoma): 1.38 µM
- TGI (SK-MEL-2 melanoma): 2.68 µM
- GI50 (HT29 colon): 1.62 µM
- TGI (HT29 colon): 3.06 µM
- GI50 (OVCAR-3 ovarian): 1.42 µM
- TGI (OVCAR-3 ovarian): 2.74 µM
- GI50 (K-562 leukemia): 1.52 µM
- TGI (K-562 leukemia): 2.89 µM
- GI50 (SNB-19 CNS): 1.75 µM
- TGI (SNB-19 CNS): 3.24 µM
- GI50 (COLO 205 colon): 1.8 µM
- TGI (COLO 205 colon): 3.21 µM
- GI50 (NCI-H226 lung): 1.2 µM
- TGI (NCI-H226 lung): 2.62 µM
- GI50 (SN12C renal): 1.64 µM
- TGI (SN12C renal): 3.02 µM
- GI50 (SNB-75 CNS): 1.97 µM
- TGI (SNB-75 CNS): 3.4 µM
- GI50 (MCF7 breast): 1.17 µM
- TGI (MCF7 breast): 2.42 µM
- GI50 (SF-268 CNS): 1.33 µM
- TGI (SF-268 CNS): 2.65 µM
- GI50 (OVCAR-5 ovarian): 1.74 µM
- TGI (OVCAR-5 ovarian): 3.24 µM
- GI50 (PC-3 prostate): 1.32 µM
- TGI (PC-3 prostate): 2.67 µM
- GI50 (NCI-H322M lung): 1.73 µM
- TGI (NCI-H322M lung): 3.42 µM
- GI50 (ACHN renal): 1.37 µM
- TGI (ACHN renal): 2.73 µM
- GI50 (RPMI-8226 leukemia): 0.81 µM
- TGI (RPMI-8226 leukemia): 2.27 µM
- GI50 (SF-539 CNS): 1.64 µM
- TGI (SF-539 CNS): 3.01 µM
- GI50 (CAKI-1 renal): 1.59 µM
- TGI (CAKI-1 renal): 2.99 µM
- GI50 (HCT-15 colon): 1.6 µM
- TGI (HCT-15 colon): 2.98 µM
- GI50 (SF-295 CNS): 1.69 µM
- TGI (SF-295 CNS): 3.1 µM
